Results: the supplement of paper PMC10307832

Key:
Assay in all cases: relative viability (nuclei count vs DMSO), 5 days (fraction); higher = more cells survive
[1] = compound: CN1C=C(C2=CC=CC=C21)/C=C\3/C4=C(C=CC=N4)NC3=O + CC(=O)Nc1cccc(-n2c(=O)n(C3CC3)c(=O)c3c(Nc4ccc(I)cc4F)n(C)c(=O)c(C)c32)c1 [Trametinib] (partner 0.02 µM)
Method in brief: (§1)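 Lung cancer cell lines in 1536-well plates got either a single drug or a fixed anchor-drug dose together with five library-drug doses (not always all listed) in √10 steps, by pin tool, on the day after seeding. Nuclei were counted after 5 days, and relative viability is the treated-to-vehicle ratio of nuclei counts. Values are medians of duplicate plates.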

[2] = compound: CN1C=C(C2=CC=CC=C21)/C=C\3/C4=C(C=CC=N4)NC3=O + C[C@@H](Oc1cc(-c2cnn(C3CCNCC3)c2)cnc1N)c1c(Cl)ccc(F)c1Cl [Crizotinib] (partner 1 µM)
Method in brief: as §1

[3] = compound: CN1C=C(C2=CC=CC=C21)/C=C\3/C4=C(C=CC=N4)NC3=O + Nc1nc2[nH]cc(CCc3ccc(C(=O)N[C@@H](CCC(=O)O)C(=O)O)cc3)c2c(=O)[nH]1 [Pemetrexed] (partner 0.2 µM)
Method in brief: as §1

Trametinib + Palbociclib = compound: CC(=O)Nc1cccc(-n2c(=O)n(C3CC3)c(=O)c3c(Nc4ccc(I)cc4F)n(C)c(=O)c(C)c32)c1 [Trametinib] + CC(=O)c1c(C)c2cnc(Nc3ccc(N4CCNCC4)cn3)nc2n(C2CCCC2)c1=O [Palbociclib] (partner 0.5 µM)
Method in brief: as §1

Cell Line: UMC-11
- relative viability ([1]; first compound 0.02 µM): 0.638
- relative viability ([1]; first compound 0.06325 µM): 0.549
- relative viability ([1]; first compound 0.2 µM): 0.552
- relative viability ([1]; first compound 0.6325 µM): 0.671
- relative viability ([1]; first compound 2 µM): 0.78
- relative viability ([2]; first compound 0.02 µM): 0.448
- relative viability ([2]; first compound 0.06325 µM): 0.543
- relative viability ([2]; first compound 0.2 µM): 0.578
- relative viability ([2]; first compound 0.6325 µM): 0.855
- relative viability ([2]; first compound 2 µM): 0.786
- relative viability ([3]; first compound 0.02 µM): 0.655
- relative viability ([3]; first compound 0.06325 µM): 0.744
- relative viability ([3]; first compound 0.2 µM): 0.801
- relative viability ([3]; first compound 0.6325 µM): 0.857
- relative viability ([3]; first compound 2 µM): 0.936
- relative viability (Trametinib + Palbociclib; first compound 0.0025 µM): 0.32
- relative viability (Trametinib + Palbociclib; first compound 0.007906 µM): 0.333
- relative viability (Trametinib + Palbociclib; first compound 0.25 µM): 0.312
